Values of other authors in patent US20260345483A1, “Pharmaceutical Formulation” (Klaria Pharma Holding AB, priority 2018, published 2026).

How the values were obtained:
[1] = system: porcine buccal epithelium; details: enhancer concentration, ref [6]
[2] = aqueous solution, ref [4]
[3] = subcutaneous injection compared with intramuscular injection, ref [3]

| SMILES | enhanced permeability with porcine buccal epithelium [1] | pH of acceptable adrenaline stability [2] | pH of optimal adrenaline stability [2] | time of peak plasma concentration [3] |
| --- | --- | --- | --- | --- |
| CCCCCCCC/C=C\CCCCCCCC(=O)O [Oleic acid, oleic acid] | 1-10% |  |  |  |
| CNCC(O)c1ccc(O)c(O)c1 (stereo not shown) [adrenaline] |  | < 5.5 | 3-4 | significantly delayed |
